Laboratory results reported in article PMC12248599, “Exploring the Bioavailability of Red Grape Skin Extract Polyphenols: A Caco-2 Cell Model Study” (Foods, 2025).
Where “and” joins values, the source holds several entries; their conditions need not be identical. Identical values can stand only once. Marks after values point to notes of the source that are not given here. Each block holds one molecule with its values, some of them ahead of it.

Key:
[1] = tested on: Caco-2 cell monolayer; experiment: Caco-2 monolayer transport (bioavailability) study, AB and BA directions; format: in vitro ADME, Homo sapiens; settings: for TE (%) transport efficiency: after 180 min; for reduction in concentration on the apical (donor) side: 0 to 180 min
Outline: (§1)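 Grape skin extract in HBSS (15 or 22 mg/mL) applied to 21-day Caco-2 monolayers (TEER ≥300 Ω cm²) in AB and BA directions; acceptor samples quantified per polyphenol by HPLC-UV. Papp from steady-state flux over 1.12 cm², efflux ratio as Papp(BA)/Papp(AB), plus transport efficiency (C/C0).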

[2] = as above; format: in vitro ADME, Homo sapiens; settings: human; for efflux ratio at 180 min, 15 mg/mL / efflux ratio at 180 min, 22 mg/mL: Caco-2, Papp (BA)/Papp (AB), read-out: ER (efflux ratio); for efflux ratio at 180 min, 15 mg/mL / Papp A→B at 180 min, 15 mg/mL / Papp B→A at 180 min, 15 mg/mL: S1 (15 mg/mL GSE); for efflux ratio at 180 min, 22 mg/mL / Papp A→B at 180 min, 22 mg/mL / Papp B→A at 180 min, 22 mg/mL: S2 (22 mg/mL GSE); for efflux ratio at 180 min: Caco-2, text statement, S1 and S2; for Papp A→B at 180 min, 15 mg/mL / Papp A→B at 180 min, 22 mg/mL / Papp B→A at 180 min, 15 mg/mL / Papp B→A at 180 min, 22 mg/mL: Caco-2; for Papp A→B at 180 min, 15 mg/mL / Papp A→B at 180 min, 22 mg/mL: apical to basolateral; for Papp B→A at 180 min, 15 mg/mL / Papp B→A at 180 min, 22 mg/mL: basolateral to apical
Outline: as §1

[3] = AB experiment, S1 (15 mg/mL GSE)
[4] = AB experiment, S2 (22 mg/mL GSE)
[5] = AB experiment, acceptor side, S1 (15 mg/mL GSE)
[6] = AB experiment, acceptor side, S2 (22 mg/mL GSE)
[7] = AB experiment, donor side, S1 (15 mg/mL GSE)
[8] = AB experiment, donor side, S2 (22 mg/mL GSE)
[9] = AB experiments, basolateral side
[10] = BA experiment, S1 (15 mg/mL GSE)
[11] = BA experiment, S2 (22 mg/mL GSE)
[12] = BA experiment, acceptor side, S1 (15 mg/mL GSE)
[13] = BA experiment, acceptor side, S2 (22 mg/mL GSE)
[14] = BA experiment, donor side, S1 (15 mg/mL GSE)
[15] = BA experiment, donor side, S2 (22 mg/mL GSE)

Compound: O=C(O)c1cc(O)c(O)c(O)c1 [GA, gallic acid]
TE (%) transport efficiency [1, 3]: 156 ± 26%
TE (%) transport efficiency [1, 4]: 164 ± 23%
Basolateral Side 75 min [1, 5]: 8.1 ± 0.9 ^b mg/L
Basolateral Side 90 min [1, 5]: 8.6 ± 0.9 ^b mg/L
Basolateral Side 115 min [1, 5]: 9.1 ± 0.9 ^b mg/L
Basolateral Side 180 min [1, 5]: 9.4 ± 0.9 ^b mg/L
Basolateral Side 75 min [1, 6]: 8.1 ± 0.9 ^b mg/L
Basolateral Side 90 min [1, 6]: 8.6 ± 0.9 ^b mg/L
Basolateral Side 115 min [1, 6]: 9.1 ± 0.9 ^b mg/L
Basolateral Side 180 min [1, 6]: 9.6 ± 0.9 ^b mg/L
Apical Side 0 min [1, 7]: 6.1 ± 0.5 ^a mg/L
Apical Side 75 min [1, 7]: 5.0 ± 0.5 ^b mg/L
Apical Side 90 min [1, 7]: 4.1 ± 0.4 ^c mg/L
Apical Side 115 min [1, 7]: 3.4 ± 0.4 ^c,d mg/L
Apical Side 180 min [1, 7]: 2.9 ± 0.3 ^d mg/L
Apical Side 0 min [1, 8]: 5.9 ± 0.3 ^a mg/L
Apical Side 75 min [1, 8]: 5.0 ± 0.3 ^b mg/L
Apical Side 90 min [1, 8]: 4.4 ± 0.3 ^c mg/L
Apical Side 115 min [1, 8]: 3.7 ± 0.3 ^d mg/L
Apical Side 180 min [1, 8]: 3.2 ± 0.3 ^d mg/L
detection at the acceptor side [1, 9]: detected
TE (%) transport efficiency [1, 10]: 165 ± 6% and 164 ± 6%
TE (%) transport efficiency [1, 11]: 188 ± 4% and 188 ± 3%
Apical Side 75 min [1, 12]: 8.1 ± 0.3 ^a,b mg/L
Apical Side 90 min [1, 12]: 9.4 ± 0.2 ^b,c mg/L
Apical Side 115 min [1, 12]: 10.5 ± 0.3 ^c,d mg/L
Apical Side 180 min [1, 12]: 11.3 ± 0.3 ^d mg/L
Apical Side 75 min [1, 13]: 8.3 ± 0.5 ^a,b mg/L
Apical Side 90 min [1, 13]: 9.6 ± 0.5 ^b,c mg/L
Apical Side 115 min [1, 13]: 10.7 ± 0.6 ^c mg/L
Apical Side 180 min [1, 13]: 11.5 ± 0.7 ^c mg/L
Basolateral Side 0 min [1, 14]: 6.9 ± 0.3 ^a mg/L
Basolateral Side 75 min [1, 14]: 6.5 ± 0.3 ^b mg/L
Basolateral Side 90 min [1, 14]: 6.2 ± 0.3 ^c mg/L
Basolateral Side 115 min [1, 14]: 5.9 ± 0.3 ^d mg/L
Basolateral Side 180 min [1, 14]: 5.5 ± 0.2 ^c mg/L
Basolateral Side 0 min [1, 15]: 6.1 ± 0.4 ^a mg/L
Basolateral Side 75 min [1, 15]: 5.7 ± 0.4 ^b mg/L
Basolateral Side 90 min [1, 15]: 5.4 ± 0.4 ^c mg/L
Basolateral Side 115 min [1, 15]: 5.0 ± 0.4 ^d mg/L
Basolateral Side 180 min [1, 15]: 4.7 ± 0.3 ^d mg/L
detection at the acceptor side ([1]; BA experiments, apical side): detected
efflux ratio at 180 min, 15 mg/mL [2]: 0.7
efflux ratio at 180 min, 22 mg/mL [2]: 0.7
efflux ratio at 180 min [2]: < 1
Papp A→B at 180 min, 15 mg/mL [2]: 1690 ± 70 ×10⁻⁶ cm/s
Papp A→B at 180 min, 22 mg/mL [2]: 1800 ± 200 ×10⁻⁶ cm/s
Papp B→A at 180 min, 15 mg/mL [2]: 1150 ± 60 ×10⁻⁶ cm/s
Papp B→A at 180 min, 22 mg/mL [2]: 1290 ± 5 ×10⁻⁶ cm/s

reduction in concentration on the apical (donor) side [1, 3]: 33.6 ± 0.5%
TE (%) transport efficiency [1, 3]: 97 ± 2%
reduction in concentration on the apical (donor) side [1, 4]: 28.7 ± 0.9%
TE (%) transport efficiency [1, 4]: 60 ± 1% and 60.2 ± 0.9%
Basolateral Side 75 min [1, 5]: 6.2 ± 0.1 ^b mg/L
Basolateral Side 90 min [1, 5]: 6.7 ± 0.1 ^c mg/L
Basolateral Side 115 min [1, 5]: 7.1 ± 0.1 ^c mg/L
Basolateral Side 180 min [1, 5]: 7.4 ± 0.1 ^c mg/L
Basolateral Side 75 min [1, 6]: 6.4 ± 0.1 ^b mg/L
Basolateral Side 90 min [1, 6]: 6.8 ± 0.2 ^c mg/L
Basolateral Side 115 min [1, 6]: 7.2 ± 0.2 ^d,c mg/L
Basolateral Side 180 min [1, 6]: 7.6 ± 0.2 ^c mg/L
Apical Side 0 min [1, 7]: 7.7 ± 0.3 mg/L and 7.7 ± 0.3 ^a mg/L
Apical Side 75 min [1, 7]: 7.1 ± 0.2 ^b mg/L
Apical Side 90 min [1, 7]: 6.7 ± 0.2 ^b,c mg/L
Apical Side 115 min [1, 7]: 6.4 ± 0.2 ^c mg/L
Apical Side 180 min [1, 7]: 5.0 ± 0.2 mg/L and 5.1 ± 0.2 ^d mg/L
Apical Side 0 min [1, 8]: 12.7 ± 0.3 mg/L and 12.7 ± 0.3 ^a mg/L
Apical Side 75 min [1, 8]: 11.8 ± 0.3 ^b mg/L
Apical Side 90 min [1, 8]: 11.3 ± 0.3 ^b,c mg/L
Apical Side 115 min [1, 8]: 10.6 ± 0.23 ^c mg/L
Apical Side 180 min [1, 8]: 9.0 ± 0.2 mg/L and 9.0 ± 0.2 ^d mg/L
detection at the acceptor side [1, 9]: detected
TE (%) transport efficiency [1, 10]: 130 ± 3%
TE (%) transport efficiency [1, 11]: 109.0 ± 0.9%
Apical Side 75 min [1, 12]: 6.1 ± 0.3 ^b mg/L
Apical Side 90 min [1, 12]: 7.4 ± 0.3 ^c mg/L
Apical Side 115 min [1, 12]: 8.7 ± 0.4 ^d mg/L
Apical Side 180 min [1, 12]: 9.9 ± 0.4 ^c mg/L
Apical Side 75 min [1, 13]: 6.8 ± 0.2 ^a,b mg/L
Apical Side 90 min [1, 13]: 8.1 ± 0.2 ^b,c mg/L
Apical Side 115 min [1, 13]: 9.4 ± 0.3 ^c,d mg/L
Apical Side 180 min [1, 13]: 10.6 ± 0.3 ^c mg/L
Basolateral Side 0 min [1, 14]: 7.6 ± 0.2 ^a mg/L
Basolateral Side 75 min [1, 14]: 7.2 ± 0.2 ^b mg/L
Basolateral Side 90 min [1, 14]: 6.9 ± 0.2 ^c mg/L
Basolateral Side 115 min [1, 14]: 6.6 ± 0.1 ^d mg/L
Basolateral Side 180 min [1, 14]: 6.1 ± 0.1 ^c mg/L
Basolateral Side 0 min [1, 15]: 9.8 ± 0.2 ^a mg/L
Basolateral Side 75 min [1, 15]: 9.5 ± 0.2 ^b mg/L
Basolateral Side 90 min [1, 15]: 9.3 ± 0.2 ^c mg/L
Basolateral Side 115 min [1, 15]: 9.1 ± 0.2 ^d mg/L
Basolateral Side 180 min [1, 15]: 8.5 ± 0.2 ^c mg/L
detection at the acceptor side ([1]; BA experiments, apical side): detected
efflux ratio at 180 min, 15 mg/mL [2]: 1.1
efflux ratio at 180 min, 22 mg/mL [2]: 1.3
efflux ratio at 180 min [2]: > 1
Papp A→B at 180 min, 15 mg/mL [2]: 1160 ± 20 ×10⁻⁶ cm/s
Papp A→B at 180 min, 22 mg/mL [2]: 730 ± 40 ×10⁻⁶ cm/s
Papp B→A at 180 min, 15 mg/mL [2]: 1230 ± 30 ×10⁻⁶ cm/s
Papp B→A at 180 min, 22 mg/mL [2]: 970 ± 30 ×10⁻⁶ cm/s
Compound: O=c1c(O[C@@H]2O[C@H](CO)[C@@H](O)[C@H](O)[C@H]2O)c(-c2ccc(O)cc2)oc2cc(O)cc(O)c12 [K3G, kaempferol-3-glucoside]
